Results taken from ChEMBL document CHEMBL5038666, “Discovery of DNA-Targeting HDAC Inhibitors with Potent Antitumor Efficacy In Vivo That Trigger Antitumor Immunity” (J Med Chem, 2022).
Each block holds one compound with its values, some of them ahead of it. Active and inactive are the calls of the source. The calls are words filed in the database; no cut-off is given here.

What was measured:
KG-1 [1] = experiment: Induction of apoptosis in human KG-1 cells measured after 24 hrs by Annexin V-FITC/propidium iodide staining based flow cytometry analysis; type: functional, cell-based; settings: dose 0.5-1 µM
Histone deacetylase = experiment: Inhibition of HDAC in human HeLa nuclear extract using fluorogenic substrate incubated for 30 mins by fluorescence based assay; type: cell-based
[2] = biological target: T1, Protein deacetylase HDAC6 (Homo sapiens, UniProt Q9UBN7); experiment: Inhibition of HDAC6 (unknown origin) using fluorogenic substrate incubated for 30 mins by fluorescence based assay
T1 sequence (Q9UBN7 whole entry): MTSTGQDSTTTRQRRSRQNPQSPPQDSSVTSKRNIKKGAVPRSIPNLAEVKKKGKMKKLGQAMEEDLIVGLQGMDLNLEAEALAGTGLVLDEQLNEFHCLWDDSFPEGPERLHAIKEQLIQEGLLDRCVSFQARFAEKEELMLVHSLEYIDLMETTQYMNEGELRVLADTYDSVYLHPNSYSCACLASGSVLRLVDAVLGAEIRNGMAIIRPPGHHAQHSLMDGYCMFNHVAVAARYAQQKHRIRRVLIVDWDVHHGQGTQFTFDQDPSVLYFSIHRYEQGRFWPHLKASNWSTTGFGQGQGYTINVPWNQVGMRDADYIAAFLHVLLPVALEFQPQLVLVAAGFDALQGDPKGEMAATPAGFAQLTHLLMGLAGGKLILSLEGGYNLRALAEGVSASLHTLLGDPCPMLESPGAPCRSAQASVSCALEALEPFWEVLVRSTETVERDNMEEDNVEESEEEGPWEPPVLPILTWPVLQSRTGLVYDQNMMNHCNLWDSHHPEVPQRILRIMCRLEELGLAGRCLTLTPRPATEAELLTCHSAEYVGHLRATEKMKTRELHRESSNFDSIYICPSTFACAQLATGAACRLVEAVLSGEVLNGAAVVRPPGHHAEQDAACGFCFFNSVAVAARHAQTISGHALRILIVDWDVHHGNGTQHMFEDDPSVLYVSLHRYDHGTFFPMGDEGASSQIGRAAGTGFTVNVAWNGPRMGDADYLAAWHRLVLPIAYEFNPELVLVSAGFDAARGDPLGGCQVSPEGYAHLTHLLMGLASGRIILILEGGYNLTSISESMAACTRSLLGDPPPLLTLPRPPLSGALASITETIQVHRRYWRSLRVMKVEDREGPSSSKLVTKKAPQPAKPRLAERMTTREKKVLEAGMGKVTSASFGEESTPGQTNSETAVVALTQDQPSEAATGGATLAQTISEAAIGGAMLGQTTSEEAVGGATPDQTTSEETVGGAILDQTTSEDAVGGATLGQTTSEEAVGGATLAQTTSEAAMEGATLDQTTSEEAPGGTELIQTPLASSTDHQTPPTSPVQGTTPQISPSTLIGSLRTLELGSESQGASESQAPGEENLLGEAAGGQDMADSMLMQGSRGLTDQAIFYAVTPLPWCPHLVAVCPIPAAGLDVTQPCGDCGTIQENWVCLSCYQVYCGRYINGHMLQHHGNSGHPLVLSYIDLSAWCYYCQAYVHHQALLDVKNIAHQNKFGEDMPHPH

Calf thymus DNA [3] = experiment: Binding affinity to calf thymus DNA assessed as change in entropy at 500 microM by isothermal titration calorimetric analysis; type: nucleic-acid assay; settings: Bos taurus
KG-1 [4] = experiment: Antiproliferative activity against human KG-1 cells assessed as inhibition of cell growth measured after 48 hrs by MTT assay; type: functional, cell-based; settings: KG-1, 48 h
KG-1 [5] = experiment: Potency index, ratio of SAHA IC50 to test compound IC50 for antiproliferative activity against human KG1 cells assessed as inhibition of cell growth measured after 48 hrs by MTT assay; type: functional
[6] = biological target: T2, Histone deacetylase (Homo sapiens) (UniProt Q13547+O15379+Q9UBN7+Q92769+Q9UQL6+Q8WUI4+Q9BY41+Q96DB2+P56524+Q9UKV0+Q969S8); experiment: Inhibition of HDAC in human KG-1 cells assessed as increase in acetylation of histone H3 measured after 24 hrs by Western blot analysis; type: cell-based; settings: dose 0.5-2.5 µM
[7] = biological target: T2, Histone deacetylase (Homo sapiens); experiment: Inhibition of HDAC in human KG1 cells assessed as increase in acetylation of alpha tubulin measured after 24 hrs by Western blot analysis; type: cell-based; settings: KG-1, dose 0.5-2.5 µM
KG-1 [8] = experiment: Downregulation of SPT16 expression in human KG-1 cells assessed as chromatin damage at 0.5 to […] measured after 24 hrs by Western blot analysis; type: functional, cell-based; settings: dose 0.5-2.5 µM
KG-1 [9] = experiment: Downregulation of SSRP-1 expression in human KG-1 cells assessed as chromatin damage at 0.5 to […] measured after 24 hrs by Western blot analysis; type: functional, cell-based; settings: dose 0.5-2.5 µM
[10] = Toxicity in mouse xenografted with HEL cells assessed as effect on body weight at 90 mg/kg, ip administered for 20 days; type: organism-based; settings: in vivo, 480 h, time 20 day
[11] = Toxicity in C57BL/6J mouse implanted with mouse B16-F10 cells assessed as glomerular structure damage in kidney at 60 mg/kg, IG administered for 12 days H and E staining based histopathological analysis; type: organism-based; settings: in vivo, po, 288 h, time 12 day
[12] = Toxicity in C57BL/6J mouse implanted with mouse B16-F10 cells assessed as liver damage at 60 mg/kg, IG administered for 12 days H and E staining based histopathological analysis; type: organism-based; settings: in vivo, po, 288 h, time 12 day
Calf thymus DNA [13] = experiment: Binding affinity to calf thymus DNA assessed as increase in absorption at 20 uM by UV-vis absorption spectroscopy; type: nucleic-acid assay; settings: Bos taurus
[14] = Toxicity in C57BL/6J mouse implanted with mouse B16-F10 cells assessed as lung damage at 60 mg/kg, IG administered for 12 days H and E staining based histopathological analysis; type: organism-based; settings: in vivo, po, 288 h, time 12 day
B16-F10 [15] = experiment: Antitumor immunity against mouse B16-F10 cells implanted in C57BL/6J mouse assessed as fold increase of CD8+ T cells in spleen by flow cytometry analysis relative to control; type: functional
B16-F10 [16] = experiment: Antitumor immunity against mouse B16-F10 cells implanted in C57BL/6J mouse assessed as fold increase of CD4+ T cells in spleen by flow cytometry analysis relative to control; type: functional
B16-F10 [17] = experiment: Antitumor immunity against mouse B16-F10 cells implanted in C57BL/6J mouse assessed as fold increase of CD3+ T cells in spleen by flow cytometry analysis relative to control; type: functional
B16-F10 [18] = experiment: Antitumor immunity against mouse B16-F10 cells implanted in C57BL/6J mouse assessed as fold increase in CD107a expression by flow cytometry analysis relative to control; type: functional
B16-F10 [19] = experiment: Antitumor immunity against mouse B16-F10 cells implanted in C57BL/6J mouse assessed as fold increase in CD69 expression by flow cytometry analysis relative to control; type: functional
B16-F10 [20] = experiment: Antitumor immunity against mouse B16-F10 cells implanted in C57BL/6J mouse assessed as fold increase in IFN-gamma secretion by flow cytometry analysis relative to control; type: functional
B16-F10 [21] = experiment: Antitumor immunity against mouse B16-F10 cells implanted in C57BL/6J mouse assessed as increase in proportion of dendritic cells by flow cytometry analysis; type: functional, cell-based
B16-F10 [22] = experiment: Antitumor immunity against mouse B16-F10 cells implanted in C57BL/6J mouse assessed as fold reduction in M2 macrophages in tumor microenvironment by flow cytometry analysis relative to control; type: functional

IC50 (Histone deacetylase): 13.2 nM
IC50 [2]: 47 nM
-TdeltaS (Calf thymus DNA [3]): 74 kcal/mol
Activity [6]: Dose-Dependent Effect
Activity [7]: Dose-Dependent Effect
Activity (Calf thymus DNA [13]): Active
SMILES: O=C(CCCCCCOc1cccc(-c2nc3ccccc3[nH]2)c1)NO
Activity (KG-1 [1]): Dose-Dependent Effect
IC50 (KG-1 [4]): 190 nM
fold change (FC) (KG-1 [5]): 50
Activity (KG-1 [8]): Active
Activity (KG-1 [9]): Active
Activity [10]: Non-Toxic
Activity [11]: Non-Toxic
Activity [12]: Non-Toxic

IC50 (Histone deacetylase): 7.9 nM
IC50 [2]: 9.2 nM
SMILES: O=C(CCCCCCCOc1cccc(-c2nc3ccccc3[nH]2)c1)NO
IC50 (KG-1 [4]): 3400 nM
Activity [10]: Non-Toxic
Activity [14]: Non-Toxic
Activity [11]: Toxic
Activity [12]: Non-Toxic
fold change (FC) (B16-F10 [15]): 1.5
fold change (FC) (B16-F10 [16]): 2
fold change (FC) (B16-F10 [17]): 1.6
fold change (FC) (B16-F10 [18]): 1.5
fold change (FC) (B16-F10 [19]): 1.5
fold change (FC) (B16-F10 [20]): 1.5
Activity (B16-F10 [21]): inactive
fold change (FC) (B16-F10 [22]): 1.5
